ChEMBL document CHEMBL1146168, “Binding of f-PIP, a pyrrole- and imidazole-containing triamide, to the inverted CCAAT box-2 of the topoisomerase IIalpha promoter and modulation of gene expression in cells” (Bioorg Med Chem Lett, 2006)
The source made the active and inactive calls. No cut-off for these calls is given here.

Assays:
[1] = system: NIH3T3; assay: Inhibition of NF-Y binding to DNA sequence ICB2 in NIH3T3 cell extracts at 1 to 5 uM by EMSA; format: cell-free; conditions: Homo sapiens
[2] = system: NIH3T3; assay: Induction of topoisomerase 2 alpha protein expression in NIH3T3 cells after 24 hrs; format: functional, cell-based; conditions: Mus musculus
[3] = system: NIH3T3; assay: Inhibition of NF-Y binding to DNA sequence ICB1 in NIH3T3 cell extracts at 50uM by EMSA; format: cell-free; conditions: Homo sapiens
[4] = species: Homo sapiens; assay: Binding affinity to DNA sequence ICB2 by SPR
[5] = species: Homo sapiens; assay: Binding affinity to DNA sequence ICB4 assessed as protection of ICB4 from DNAase I cleavage at 100 uM
[6] = system: NIH3T3; assay: Increased topoisomerase 2 alpha protein expression in NIH3T3 cells at 10 uM after 4 hrs; format: functional, cell-based; conditions: Mus musculus
[7] = system: NIH3T3; assay: Inhibition of NF-Y binding to DNA sequence ICB2 in NIH3T3 cell extracts at 50 uM by EMSA; format: cell-free; conditions: Homo sapiens
[8] = species: Homo sapiens; assay: Binding affinity to DNA sequence ICB1 assessed as protection of ICB1 from DNAase I cleavage at 100 uM

Activity [4] | Activity [5] | Activity [8] | Compound | Activity [1] | Activity [2] | Activity [3] | Activity [6] | Activity [7]
– | – | – | CN(C)CCNC(=O)c1cc(NC(=O)c2cc(NC(=O)c3cc(NC(=O)CCCNC(=O)c4nc(NC(=O)c5nc(NC(=O)c6cccn6C)cn5C)cn4C)cn3C)cn2C)cn1C | Active | Active | – | – | –
200000 M⁻¹ | inactive | inactive | CN(C)CCNC(=O)c1cc(NC(=O)c2nc(NC(=O)c3cc(NC=O)cn3C)cn2C)cn1C | – | – | inactive | Active | Active
